Reference: ChEMBL document CHEMBL3352609, “Synthesis of new 1-(4-methane(amino)sulfonylphenyl)-5-(4-substituted-aminomethylphenyl)-3-trifluoromethyl-1H-pyrazoles: a search for novel nitric oxide donor anti-inflammatory agents” (2014)

Tests used:
Type in all cases: functional
Rattus norvegicus [1] = assay: Anti-inflammatory activity in carrageenan-induced rat foot paw edema model assessed as reduction in paw volume at 20 mg/kg dosed 30 mins before carrageenan injection and measured 1 hr after carrageenan challenge
Rattus norvegicus [2] = assay: Anti-inflammatory activity in carrageenan-induced rat foot paw edema model assessed as reduction in paw volume at 20 mg/kg dosed 30 mins before carrageenan injection and measured 3 hrs after carrageenan challenge
Rattus norvegicus [3] = assay: Anti-inflammatory activity in carrageenan-induced rat foot paw edema model assessed as reduction in paw volume at 20 mg/kg dosed 30 mins before carrageenan injection and measured 5 hrs after carrageenan challenge

Compound	inhibition in vivo at 20 mg/kg (Rattus norvegicus [1]) [%]	inhibition in vivo at 20 mg/kg (Rattus norvegicus [2]) [%]	inhibition in vivo at 20 mg/kg (Rattus norvegicus [3]) [%]
CCN(Cc1ccc(-c2cc(C(F)(F)F)nn2-c2ccc(S(C)(=O)=O)cc2)cc1)N=O	24	39	25
CNCc1ccc(-c2cc(C(F)(F)F)nn2-c2ccc(S(N)(=O)=O)cc2)cc1	54	69	57
Cc1ccc(-c2cc(C(F)(F)F)nn2-c2ccc(S(N)(=O)=O)cc2)cc1 [CELECOXIB]	40	80	48
CCNCc1ccc(-c2cc(C(F)(F)F)nn2-c2ccc(S(N)(=O)=O)cc2)cc1	53	71	39
CNCc1ccc(-c2cc(C(F)(F)F)nn2-c2ccc(S(C)(=O)=O)cc2)cc1	72	89	67
CCNCc1ccc(-c2cc(C(F)(F)F)nn2-c2ccc(S(C)(=O)=O)cc2)cc1	66	72	66
CS(=O)(=O)c1ccc(-n2nc(C(F)(F)F)cc2-c2ccc(CN3CCN(N=O)CC3)cc2)cc1	19	43	29
CS(=O)(=O)c1ccc(-n2nc(C(F)(F)F)cc2-c2ccc(CN3CCNCC3)cc2)cc1	67	73	66
NS(=O)(=O)c1ccc(-n2nc(C(F)(F)F)cc2-c2ccc(CN3CCNCC3)cc2)cc1	58	70	35
